Assay in all cases: DTP human tumour cell line panel, 48 h
The subject of assay [1] is RPMI-8226 leukemia.
Assay [2] relates to CAKI-1 renal.
The test system of assay [3] is UACC-257 melanoma.
The test system of assay [4] is EKVX NSCLC.
The test system of assay [5] is HL-60(TB) leukemia.
The test system of assay [6] is SF-268 CNS.
Assay [7] deals with HCT-116 colon.
Assay [8] relates to K-562 leukemia.
The subject of assay [9] is OVCAR-8 ovarian.
The test system of assay [10] is HCT-15 colon.
The test system of assay [11] is CCRF-CEM leukemia.
The test system of assay [12] is KM12 colon.
Assay [13] has as its system IGROV1 ovarian.

A word on the TGI: it is the concentration giving total growth inhibition. Low values mean more potent growth arrest, high ones less potent growth arrest. Usually GI50 stands for the concentration giving 50% growth inhibition.

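Step 1: Grow cells in 96-well plates. Step 2: Expose to compound for 48 hours at 5 concentrations. Step 3: Interpolate endpoints linearly; if unreached, use highest concentration. Here, GI50 denotes the concentration required for 50% inhibition of growth. TGI marks complete inhibition of growth.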 A value given as a limit tells only on which side of the number the result lay.

In the case of `CCN(CC)CCCOC(=O)/C=C/c1c(C)[nH]c(=O)[nH]c1=O`, the TGI in assay [1], in assay [2], in assay [3], in assay [4], in [5] and in assay [6] was more than 625 µM in each case. Further, the TGI in assay [7], in assay [8], in assay [9], in [10], in assay [11] and in assay [12] was more than 625 µM each time. The TGI in assay [13] was more than 625 µM.

Turning to `CC(=O)[C@@H]1CCC=C2CC[C@]3(C)[C@@H](CC[C@@H]4[C@@]5(C)CCCNC(C)(C)[C@@H]5CC[C@]43C)[C@H]21`, the GI50 in [2] is 1.81 µM; in assay [3], 2.19 µM; in assay [9] it was 1.99 µM; in [10], 1.44 µM; in assay [11], 2.27 µM; in [12], 1.93 µM. Moreover, the GI50 in assay [13] is 1.69 µM. For the same compound, the TGI is 3.22 µM in [2]; 4.29 µM in assay [3]; 3.94 µM in [9]; 2.84 µM in assay [10]; 5.63 µM in assay [11]; 3.6 µM in [12]. For the same compound, the TGI in [13] was determined as 3.28 µM.

Turning to `Cc1c2c(cc3c1[nH]c1ccccc13)C=NCC2`, the concentration for total growth inhibition (TGI) came to 51.6 µM in assay [1]; 31.6 µM in assay [2]; 19.6 µM in assay [3]; 78.9 µM in [4]; 27.8 µM in assay [5]; 49.6 µM in assay [6]. For the same compound, the TGI in [7] was determined as 14.6 µM; in assay [8], 20.8 µM; in assay [9], 36.4 µM; in assay [10], 61.8 µM; in [11], 30.5 µM; in assay [12], 27.8 µM. In assay [13], this compound registered a TGI of 49.5 µM.

As to `O=C(CC/C=C(/CS(=O)(=O)c1ccccc1)S(=O)(=O)c1ccccc1)c1ccccc1`, the TGI in assay [1], in [3], in assay [4], in [5], in [7] and in assay [8] was more than 100 µM throughout. The TGI in assay [9], in assay [10], in [11], in [12] and in [13] was more than 100 µM each time.

Turning to `CC(=O)NCCC1CN(C(=O)/C=C\C#C[Si](C)(C)C)c2ccccc21` (stereo unspecified), the TGI in assay [1] was more than 100 µM; in assay [2] it was 33.2 µM; in assay [3], 9.27 µM; in assay [4], 37.5 µM; in [5], 81.3 µM; in assay [6], more than 100 µM. For the same compound, the TGI in assay [8] is more than 100 µM; in assay [9] it was more than 100 µM; in assay [10] it was 48.9 µM; in assay [11], more than 100 µM; in assay [12] it was more than 100 µM; in [13] it was 30.8 µM.

For `CCCCCCCCCCCCCCCCSCC(COC)COP(=O)([O-])OCC[N+](C)(C)C` (stereo unspecified), the TGI in assay [1] stood at 8.48 µM; in [2] it was 12.7 µM; in assay [3], 28.8 µM; in assay [4], 28.4 µM; in assay [5], 4.4 µM; in [6], 20.5 µM. Further, the TGI turned out to be 18.7 µM in assay [7]; 28 µM in assay [8]; 22.3 µM in assay [9]; 10.3 µM in assay [10]; 10.1 µM in [11]; 2.45 µM in assay [12]. Besides, the TGI in assay [13] was 4.77 µM.

Regarding `CC(=O)OCC1OC(n2cc(F)c(=O)[nH]c2=O)C(N)C(OC(C)=O)C1OC(C)=O` (stereo unspecified), the TGI in assay [1], in [2], in assay [3], in assay [4], in [5] and in assay [6] was more than 100 µM throughout. Also, the TGI in assay [7], in assay [8], in assay [9], in assay [10], in assay [11] and in assay [12] was more than 100 µM in each case. This compound registered a TGI in assay [13] of more than 100 µM.

As for `Nc1nc2c(c(=O)[nH]1)N(C=O)C(CNc1ccc(C(=O)N[C@@H](CCC(=O)O)C(=O)O)cc1)CN2` (stereo partly specified), the concentration for total growth inhibition (TGI) in assay [1] is more than 125 µM; in [2], more than 125 µM; in [3], more than 125 µM; in [4], more than 125 µM; in [5], more than 31.4 µM; in [6] it was more than 125 µM. The TGI in [7] is more than 125 µM; in [8], more than 31.4 µM; in assay [9] it was more than 125 µM; in assay [10], more than 125 µM; in [11], more than 31.4 µM; in [12], more than 125 µM. In [13], the TGI is more than 125 µM.

For `O=C1CC(=O)c2c(O)cc(O)c(c2O)-c2c(ccc(O)c2O)C2=CC(=O)c3c(O)cc(O)c(c3O2)-c2c1ccc(O)c2O` (tested in a mixture with another compound), the TGI in assay [2], in assay [3], in [4], in assay [5], in assay [6] and in [7] was more than 50 µM throughout. Besides, the TGI in [8], in [9], in [10], in assay [11] and in [13] was more than 50 µM throughout.

Take `CCOC(=O)c1sc2nc(SC)nc3c2c1NC(=O)CN3c1cccc(F)c1`: the TGI in [1] was 46.8 µM; in assay [2], more than 100 µM; in [3], more than 100 µM; in assay [4] it was more than 100 µM; in assay [5], 24.4 µM; in assay [6], 28.1 µM. For the same compound, the TGI in [7] is 53 µM; in assay [8], 93.3 µM; in assay [9], 30.6 µM; in assay [12], more than 100 µM; in assay [13] it was more than 100 µM.

Take `O=C(NCCCCCCNC(=O)n1cc(F)c(=O)[nH]c1=O)NCCCOCCOCCCNC(=O)C(O)C(O)C(O)C(O)CO` (stereo unspecified): the TGI in [1], in [3], in [4], in assay [5], in [6] and in assay [7] was more than 2.5 µM throughout. For the same compound, the TGI in [8], in assay [9], in assay [10], in assay [11], in [12] and in [13] was more than 2.5 µM throughout.

Source of the values: PubChem BioAssay (NCI).
